Results on one compound are retold here after ChEMBL document CHEMBL1159241, “Dihydrolicoisoflavone, a new isoflavanone from Swartzia polyphylla” (J Nat Prod, 1995).

The experiment is described as follows: Inhibition of protein kinase C.

As a reminder, the IC50 is the midpoint of a concentration-inhibition curve. Higher therefore signals lower potency. In the case of `COc1ccc(-c2coc3cc(O)cc(O)c3c2=O)cc1` [BIOCHANIN], the concentration for half-maximal inhibition (IC50) was less than 50 µg/mL.
